Measured values: US5530126A, “Process for the preparation of substituted 6-(pyrazol-3yl)-1,4-benzoxazin-3-ones” (Monsanto Company, priority 1994, dated 1996)

What was measured:
Type in all cases: in vivo
Annual bluegrass [1] = test: Pre-emergence herbicide test; conditions: read-out: % plant inhibition (Anbg); for inhibition at 11210 g/ha: 11.21 kg/ha; for inhibition at 1120 g/ha: 1.12 kg/ha
Method in brief: (§1)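 In this greenhouse test, seeds on compacted topsoil receive the active ingredient in an organic solvent or aqueous carrier, are covered with untreated soil and watered from below; percent inhibition is scored approximately 11 days later.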

Barnyardgrass [2] = test: Pre-emergence herbicide test; conditions: Echinochloa crus-galli, read-out: % plant inhibition (Bygr); for inhibition at 11210 g/ha: 11.21 kg/ha; for inhibition at 1120 g/ha: 1.12 kg/ha
Method in brief: as §1

Cocklebur [3] = test: Pre-emergence herbicide test; conditions: Xanthium strumarium, read-out: % plant inhibition (Cobu); for inhibition at 11210 g/ha: 11.21 kg/ha; for inhibition at 1120 g/ha: 1.12 kg/ha
Method in brief: as §1

Downy Brome [4] = test: Pre-emergence herbicide test; conditions: Bromus tectorum, read-out: % plant inhibition (Dobr); for inhibition at 11210 g/ha: 11.21 kg/ha; for inhibition at 1120 g/ha: 1.12 kg/ha
Method in brief: as §1

Indian Mustard [5] = test: Pre-emergence herbicide test; conditions: Brassica juncea, read-out: % plant inhibition (Inmu); for inhibition at 11210 g/ha: 11.21 kg/ha; for inhibition at 1120 g/ha: 1.12 kg/ha
Method in brief: as §1

Morningglory [6] = test: Pre-emergence herbicide test; conditions: Ipomoea, read-out: % plant inhibition (Mogl); for inhibition at 11210 g/ha: 11.21 kg/ha; for inhibition at 1120 g/ha: 1.12 kg/ha
Method in brief: as §1

Seedling johnsongrass [7] = test: Pre-emergence herbicide test; conditions: Sorghum halepense, read-out: % plant inhibition (Sejg); for inhibition at 11210 g/ha: 11.21 kg/ha; for inhibition at 1120 g/ha: 1.12 kg/ha
Method in brief: as §1

Velvetleaf [8] = test: Pre-emergence herbicide test; conditions: Abutilon theophrasti, read-out: % plant inhibition (Vele); for inhibition at 11210 g/ha: 11.21 kg/ha; for inhibition at 1120 g/ha: 1.12 kg/ha
Method in brief: as §1

Wild buckwheat [9] = test: Pre-emergence herbicide test; conditions: Fallopia convolvulus, read-out: % plant inhibition (Wibw); for inhibition at 11210 g/ha: 11.21 kg/ha; for inhibition at 1120 g/ha: 1.12 kg/ha
Method in brief: as §1

Yellow nutsedge [10] = test: Pre-emergence herbicide test; conditions: Cyperus, read-out: % plant inhibition (Yens); for inhibition at 11210 g/ha: 11.21 kg/ha; for inhibition at 1120 g/ha: 1.12 kg/ha
Method in brief: as §1

Annual bluegrass [11] = test: Post-emergence herbicide test; conditions: read-out: % plant inhibition (Anbg); for inhibition at 11210 g/ha: 11.21 kg/ha; for inhibition at 1120 g/ha: 1.12 kg/ha
Method in brief: (§2)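 Plants grown from seed or vegetative propagules in greenhouse soil pans were sprayed at two to three weeks of age by atomizer at 170.3 kPa, delivering 1870 L/Ha containing about 0.4% v/v emulsifier. Injury versus untreated controls was scored as percent inhibition at about 11 days, sometimes again near 25 days.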

Barnyardgrass [12] = test: Post-emergence herbicide test; conditions: Echinochloa crus-galli, read-out: % plant inhibition (Bygr); for inhibition at 11210 g/ha: 11.21 kg/ha; for inhibition at 1120 g/ha: 1.12 kg/ha
Method in brief: as §2

Cocklebur [13] = test: Post-emergence herbicide test; conditions: Xanthium strumarium, read-out: % plant inhibition (Cobu); for inhibition at 11210 g/ha: 11.21 kg/ha; for inhibition at 1120 g/ha: 1.12 kg/ha
Method in brief: as §2

Downy Brome [14] = test: Post-emergence herbicide test; conditions: Bromus tectorum, read-out: % plant inhibition (Dobr); for inhibition at 11210 g/ha: 11.21 kg/ha; for inhibition at 1120 g/ha: 1.12 kg/ha
Method in brief: as §2

Indian Mustard [15] = test: Post-emergence herbicide test; conditions: Brassica juncea, read-out: % plant inhibition (Inmu); for inhibition at 11210 g/ha: 11.21 kg/ha; for inhibition at 1120 g/ha: 1.12 kg/ha
Method in brief: as §2

Morningglory [16] = test: Post-emergence herbicide test; conditions: Ipomoea, read-out: % plant inhibition (Mogl); for inhibition at 11210 g/ha: 11.21 kg/ha; for inhibition at 1120 g/ha: 1.12 kg/ha
Method in brief: as §2

Seedling johnsongrass [17] = test: Post-emergence herbicide test; conditions: Sorghum halepense, read-out: % plant inhibition (Sejg); for inhibition at 11210 g/ha: 11.21 kg/ha; for inhibition at 1120 g/ha: 1.12 kg/ha
Method in brief: as §2

Velvetleaf [18] = test: Post-emergence herbicide test; conditions: Abutilon theophrasti, read-out: % plant inhibition (Vele); for inhibition at 11210 g/ha: 11.21 kg/ha; for inhibition at 1120 g/ha: 1.12 kg/ha
Method in brief: as §2

Wild buckwheat [19] = test: Post-emergence herbicide test; conditions: Fallopia convolvulus, read-out: % plant inhibition (Wibw); for inhibition at 11210 g/ha: 11.21 kg/ha; for inhibition at 1120 g/ha: 1.12 kg/ha
Method in brief: as §2

Yellow nutsedge [20] = test: Post-emergence herbicide test; conditions: Cyperus, read-out: % plant inhibition (Yens); for inhibition at 11210 g/ha: 11.21 kg/ha; for inhibition at 1120 g/ha: 1.12 kg/ha
Method in brief: as §2

| Structure (SMILES) | inhibition at 1120 g/ha (Annual bluegrass [1]) [%] | inhibition at 1120 g/ha (Barnyardgrass [2]) [%] | inhibition at 1120 g/ha (Cocklebur [3]) [%] | inhibition at 1120 g/ha (Downy Brome [4]) [%] | inhibition at 1120 g/ha (Indian Mustard [5]) [%] | inhibition at 1120 g/ha (Morningglory [6]) [%] | inhibition at 1120 g/ha (Seedling johnsongrass [7]) [%] | inhibition at 1120 g/ha (Velvetleaf [8]) [%] | inhibition at 1120 g/ha (Wild buckwheat [9]) [%] | inhibition at 1120 g/ha (Yellow nutsedge [10]) [%] | inhibition at 1120 g/ha (Annual bluegrass [11]) [%] | inhibition at 1120 g/ha (Barnyardgrass [12]) [%] | inhibition at 1120 g/ha (Cocklebur [13]) [%] | inhibition at 1120 g/ha (Downy Brome [14]) [%] | inhibition at 1120 g/ha (Indian Mustard [15]) [%] | inhibition at 1120 g/ha (Morningglory [16]) [%] | inhibition at 1120 g/ha (Seedling johnsongrass [17]) [%] | inhibition at 1120 g/ha (Velvetleaf [18]) [%] | inhibition at 1120 g/ha (Wild buckwheat [19]) [%] | inhibition at 1120 g/ha (Yellow nutsedge [20]) [%] | other results |
| --- | --- | --- | --- | --- | --- | --- | --- | --- | --- | --- | --- | --- | --- | --- | --- | --- | --- | --- | --- | --- | --- |
| Cn1nc(-c2cc(S(=O)(=O)Cl)c(Cl)cc2Cl)c(Cl)c1C(F)(F)F [Compound 89] |  |  |  |  |  |  |  |  |  |  |  |  |  |  |  |  |  |  |  |  | inhibition at 11210 g/ha (Annual bluegrass [1]): 0%; inhibition at 11210 g/ha (Barnyardgrass [2]): 0%; inhibition at 11210 g/ha (Cocklebur [3]): 0%; inhibition at 11210 g/ha (Downy Brome [4]): 0%; inhibition at 11210 g/ha (Indian Mustard [5]): 70%; inhibition at 11210 g/ha (Morningglory [6]): 20%; inhibition at 11210 g/ha (Seedling johnsongrass [7]): 0%; inhibition at 11210 g/ha (Velvetleaf [8]): 90%; inhibition at 11210 g/ha (Wild buckwheat [9]): 30%; inhibition at 11210 g/ha (Yellow nutsedge [10]): 10%; inhibition at 11210 g/ha (Annual bluegrass [11]): 10%; inhibition at 11210 g/ha (Barnyardgrass [12]): 20%; inhibition at 11210 g/ha (Cocklebur [13]): 100%; inhibition at 11210 g/ha (Downy Brome [14]): 10%; inhibition at 11210 g/ha (Indian Mustard [15]): 80%; inhibition at 11210 g/ha (Morningglory [16]): 100%; inhibition at 11210 g/ha (Seedling johnsongrass [17]): 70%; inhibition at 11210 g/ha (Velvetleaf [18]): 100%; inhibition at 11210 g/ha (Wild buckwheat [19]): 50%; inhibition at 11210 g/ha (Yellow nutsedge [20]): 0% |
| Cn1nc(-c2cc(C3=NCCO3)c(Cl)cc2F)c(Cl)c1C(F)(F)F [Compound 98] | 0 | 30 | 20 | 60 | 70 | 80 | 70 | 90 | 60 | 0 | 70 | 80 | 100 | 90 | 80 | 100 | 90 | 100 | 50 | 0 |  |
| COc1cc(-c2nn(C)c(C(F)(F)F)c2Cl)c(F)cc1Br [Compound 94] | 100 | 100 | 60 | 100 | 100 | 90 | 100 | 100 | 100 | 20 | 90 | 100 | 80 | 100 | 80 | 90 | 90 | 100 | 100 | 10 |  |
| CCOCc1cc(-c2nn(C)c(C(F)(F)F)c2Cl)c(F)cc1Cl [Compound 118] | 100 | 90 | 80 | 100 | 100 | 100 | 90 | 90 | 100 | 0 | 30 | 30 | 80 | 20 | 30 | 60 | 30 | 90 | 100 | 30 |  |
| CCOC(=O)C(C)OC(=O)c1cc(-c2nn(C)c(C(F)(F)F)c2Cl)c(F)cc1Cl (centres unmarked) [Compound 138, 2-Chloro-5-(4-chloro-1-methyl-5-(trifluoromethyl)-1H-pyrazol-3-yl)-4-fluorobenzoic acid, 2-ethoxy-1-methyl-2-oxoethyl ester] | 40 | 50 | 100 | 90 | 100 | 100 | 30 | 100 | 100 | 20 | 100 | 100 | 100 | 100 | 100 | 100 | 100 | 100 | 100 | 20 |  |
| Cn1nc(-c2cc(Oc3ccc(C(F)(F)F)cc3Cl)c(Cl)cc2F)c(Cl)c1C(F)(F)F [Compound 203] |  |  |  |  |  |  |  |  |  |  |  |  |  |  |  |  |  |  |  |  | inhibition at 11210 g/ha (Annual bluegrass [1]): 0%; inhibition at 11210 g/ha (Barnyardgrass [2]): 0%; inhibition at 11210 g/ha (Cocklebur [3]): 20%; inhibition at 11210 g/ha (Downy Brome [4]): 10%; inhibition at 11210 g/ha (Indian Mustard [5]): 0%; inhibition at 11210 g/ha (Morningglory [6]): 10%; inhibition at 11210 g/ha (Seedling johnsongrass [7]): 20%; inhibition at 11210 g/ha (Velvetleaf [8]): 0%; inhibition at 11210 g/ha (Wild buckwheat [9]): 0%; inhibition at 11210 g/ha (Yellow nutsedge [10]): 0%; inhibition at 11210 g/ha (Annual bluegrass [11]): 20%; inhibition at 11210 g/ha (Barnyardgrass [12]): 50%; inhibition at 11210 g/ha (Cocklebur [13]): 60%; inhibition at 11210 g/ha (Downy Brome [14]): 30%; inhibition at 11210 g/ha (Indian Mustard [15]): 60%; inhibition at 11210 g/ha (Morningglory [16]): 60%; inhibition at 11210 g/ha (Seedling johnsongrass [17]): 60%; inhibition at 11210 g/ha (Velvetleaf [18]): 100%; inhibition at 11210 g/ha (Wild buckwheat [19]): 90%; inhibition at 11210 g/ha (Yellow nutsedge [20]): 0% |
| CC(C)OC(=O)COc1cc(-c2nn(C)c(C(F)(F)Cl)c2Cl)c(F)cc1Cl [Compound 285] | 0 | 50 | 80 | 0 | 10 | 100 | 0 | 100 | 80 | 0 | 30 | 70 | 100 | 40 | 100 | 100 | 50 | 100 | 100 | 40 |  |
| Cn1nc(-c2cc(O)c(Cl)cc2F)c(Cl)c1C(F)(F)Cl [Compound 329] | 0 | 0 | 0 | 0 | 90 | 70 | 0 | 100 | 100 | 0 | 90 | 90 | 90 | 90 | 100 | 100 | 90 | 100 | 100 | 0 |  |
| Cn1nc(-c2cc(COCCF)c(Cl)cc2F)c(Cl)c1C(F)(F)F [Compound 116] | 90 | 90 | 50 | 80 | 90 | 90 | 90 | 100 | 100 | 0 | 80 | 80 | 100 | 70 | 80 | 100 | 70 | 100 | 80 | 20 |  |
| Cn1nc(-c2cc(O)c(Br)cc2F)c(Cl)c1C(F)(F)F [Compound 95] | 30 | 50 | 20 | 20 | 80 | 40 | 50 | 90 | 100 | 20 | 60 | 80 | 100 | 40 | 70 | 80 | 50 | 100 | 100 | 10 |  |
